Data on four molecules can be found in patent US5252478A, “Thermostable mutants of neutral protease and means for their preparation” (Eniricerche S.p.A., priority 1990, dated 1993).

A word on the Km: it is the substrate concentration at which the rate is half of its maximum.

Test in all cases: Kinetic parameters on synthetic peptide substrates (HPLC of hydrolysis products)
Common to all, as to format: biochemical

Assay [1] concerns the target T1, B.subtilis neutral protease mutant 147 (Gly 147 → Ala) (Bacillus subtilis, UniProt P68736, G369A).
T1 construct: made in house; host or cells: B. subtilis SMS 108 carrying pSM 374 (B. subtilis SMS 263)
The conditions noted are these: 147 mutant; 37° C., 25 mM Tris-HCl, pH 7.0, 2.5 mM calcium acetate. As to the method:
(§1) The kinetic parameters Km and Kcat of wild-type neutral protease and of the three mutants were determined on Z-Phe-Leu-Ala, Z-Ala-Leu-Ala, Z-Gly-Leu-Ala and Z-Val-Leu-Ala synthetic peptide substrates (Bachem, Bubendorf, CH).
(§2) The hydrolysis reactions were carried out at 37° C. in 0.6 ml of a solution containing 25 mM Tris-HCl, pH 7.0, and 2.5 mM calcium acetate, with the use of different concentrations of the substrate (from 0.2 to 20.0 mM) and of the enzyme (from 0.04 to 5 ug/ml).
(§3) 100 μl portions were withdrawn from the reaction mixtures at various time intervals, and 100 μl of a solution of H2 O:CH3 CN:H3 PO4 in a volumetric ratio of 64:34:1 were added and the mixture centrifuged at 14,000 rpm for 5 minutes.
(§4) 20 μl of the supernatant liquid thus obtained were then loaded into a VYDAC® 218 TP S415 HPLC column (4.6×150 mm, 10 μm particles) and the hydrolysis products (Z-Phe, Z-Ala, Z-Val and Z-Gly) were separated by isocratic elution at a flow rate of 1.5 ml/minute with the use of solutions A (0.05% H3 PO4, v/v) and B (H2 O:CH3 CN:H3 PO4, 4.95:95.0:0.05 v/v) in ratios which varied according to the substrate used.
(§5) The reaction products were measured as their absorbance at 220 nm and quantised by the integration of the elution peaks with the use of the System Gold program (Beckman).
(§6) Initial velocities (vi) and maximum velocities (Vmax) Km and Kcat were then found for each of the substrates with the use of the Michaelis-Manten equation [formula]

Assay [2] deals with T2, B.subtilis neutral protease double mutant 147/189 (Gly 147 → Ala, Gly 189 → Ala) (Bacillus subtilis, UniProt P68736, G369A/G406A).
T2 construct: made in house; host or cells: B. subtilis SMS 108 carrying pSM 376 (B. subtilis SMS 262)
T2 sequence (P68736 222-521 G369A/G406A): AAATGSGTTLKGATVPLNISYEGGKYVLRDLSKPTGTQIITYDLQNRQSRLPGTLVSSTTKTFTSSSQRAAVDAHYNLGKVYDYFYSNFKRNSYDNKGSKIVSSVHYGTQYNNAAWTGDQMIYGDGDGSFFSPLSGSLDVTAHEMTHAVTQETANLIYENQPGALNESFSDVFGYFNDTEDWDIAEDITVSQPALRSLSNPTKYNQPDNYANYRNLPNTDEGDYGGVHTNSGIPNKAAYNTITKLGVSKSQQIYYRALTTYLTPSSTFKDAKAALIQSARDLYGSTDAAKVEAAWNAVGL
To be noted: 147/189 mutant; 37° C., 25 mM Tris-HCl, pH 7.0, 2.5 mM calcium acetate. As to the method:
as §1, §2, §3, §4, §5, §6

The target of assay [3] is T3, B.subtilis neutral protease mutant 189 (Gly 189 → Ala) (Bacillus subtilis, UniProt P68736, G406A).
T3 construct: made in house; host or cells: B. subtilis SMS 108 carrying pSM 375 (printed pSM 75; B. subtilis SMS 261)
T3 sequence (P68736 222-521 G406A): as the sequence (P68736 222-521 G369A/G406A) above, with A148G counted along it
To be noted: 189 mutant; 37° C., 25 mM Tris-HCl, pH 7.0, 2.5 mM calcium acetate. As to the method:
as §1, §2, §3, §4, §5, §6

The target in assay [4] is T4, B.subtilis neutral protease, wild type (PN w.t.) (Bacillus subtilis, UniProt P68736).
T4 construct: made in house; host or cells: B. subtilis SMS 108 carrying pSM 127 (NRRL B-15900)
T4 sequence (P68736 222-521): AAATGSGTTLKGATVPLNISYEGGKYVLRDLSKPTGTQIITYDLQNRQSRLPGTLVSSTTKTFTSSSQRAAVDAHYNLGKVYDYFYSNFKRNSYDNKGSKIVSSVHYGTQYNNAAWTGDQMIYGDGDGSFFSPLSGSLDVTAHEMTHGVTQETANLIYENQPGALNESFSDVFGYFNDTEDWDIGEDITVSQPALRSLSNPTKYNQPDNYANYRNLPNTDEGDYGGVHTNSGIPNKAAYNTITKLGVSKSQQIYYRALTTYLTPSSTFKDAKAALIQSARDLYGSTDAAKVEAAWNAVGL
Details: unit not given beside the values. To be noted: 37° C., 25 mM Tris-HCl, pH 7.0, 2.5 mM calcium acetate. As to the method: as §1, §2, §3, §4, §5, §6

Molecules are shown by their SMILES. Residues, ends and D or L forms follow the SMILES beside them. *: point of attachment. Cbz = O=C(OCc1ccccc1)*

T1 sequence (P68736 222-521 G369A): as the sequence (P68736 222-521 G369A/G406A) above, with A185G counted along it

For the molecule `CC(C)C[C@H](NC(=O)[C@H](C)NC(=O)OCc1ccccc1)C(=O)N[C@@H](C)C(=O)O` [Z--Ala--Leu--Ala, Z-Ala-Leu-Ala] (Cbz-Ala-Leu-Ala-OH), the Kcat is given as roughly 3500 in assay [1], 1329 in assay [2], 2694 in assay [3] and 3005 in assay [4]. Also, the values for the Km in assay [2] and in assay [3] were 8.72 mM and 1.53 mM, respectively.
Take `CC(C)C[C@H](NC(=O)[C@H](Cc1ccccc1)NC(=O)OCc1ccccc1)C(=O)N[C@@H](C)C(=O)O` [Z--Phe--Leu--Ala, Z-Phe-Leu-Ala] (Cbz-Phe-Leu-Ala-OH): the Kcat was determined as 1933 in assay [1], 1038 in assay [2], 2139 in assay [3] and 1986 in assay [4]. Further, the Km was determined as 9.36 mM in assay [1], 0.95 mM in assay [2] and 2.53 mM in assay [3].
In the case of `CC(C)C[C@H](NC(=O)CNC(=O)OCc1ccccc1)C(=O)N[C@@H](C)C(=O)O` [Z--Gly--Leu--Ala, Z-Gly-Leu-Ala] (Cbz-Gly-Leu-Ala-OH), the Kcat is listed as 105.8 in assay [1], 186.4 in assay [2], 1847 in assay [3] and 1150 in assay [4]. The Km worked out at 35.3 mM in assay [1], 4.39 mM in assay [2] and 2.38 mM in assay [3].
As to `CC(C)C[C@H](NC(=O)[C@@H](NC(=O)OCc1ccccc1)C(C)C)C(=O)N[C@@H](C)C(=O)O` [Z--Val--Leu--Ala, Z-Val-Leu-Ala] (Cbz-Val-Leu-Ala-OH), the Kcat came to 3.76 in assay [1], 7.61 in assay [2], 13.12 in assay [3] and 6.12 in assay [4]. Further, the Km in assay [1] was 24 mM; in assay [2], 6.97 mM; in assay [3] it was 0.96 mM.
